Where two headings read alike, the source gives them in different places.
Key:
[1] = test system: P. falciparum 3D7 parasites; experiment: P. falciparum growth inhibition assay, 1-cycle (72 h treatment), SYBR DNA staining (library screen at 2 μg/mL and dose-response); format: cell-based, Plasmodium falciparum; conditions: for activity at 2 µg/mL: Plasmodium falciparum, 3D7
[2] = test system: T. gondii RH strain (RH-Tub-eYFP) tachyzoites; experiment: microbe, parasite or virus in culture; format: cell-based, Toxoplasma gondii; conditions: 72 h; for percent parasite growth at 2 µg/mL: Toxoplasma gondii
[3] = test system: P. falciparum 3D7 parasites; experiment: P. falciparum growth inhibition assay, 2-cycle (120 h treatment), delayed-death screen and dose-response; format: cell-based, Plasmodium falciparum; conditions: for activity at 2 µg/mL: Plasmodium falciparum, 3D7
[4] = P. falciparum, 72 h, screen at 2 μg/mL, replicate 1
[5] = P. falciparum, 72 h, screen at 2 μg/mL, replicate 2
[6] = T. gondii, screen at 2 μg/mL, replicate 1
[7] = T. gondii, screen at 2 μg/mL, replicate 2
[8] = P. falciparum, 120 h, screen at 2 μg/mL, replicate 1
[9] = P. falciparum, 120 h, screen at 2 μg/mL, replicate 2
[10] = P. falciparum, 72 h, parasite screen 2 μg/mL, % growth, replicate 1
[11] = P. falciparum, 72 h, parasite screen 2 μg/mL, % growth, replicate 2
[12] = T. gondii, parasite screen 2 μg/mL, % growth, replicate 1
[13] = T. gondii, parasite screen 2 μg/mL, % growth, replicate 2
[14] = P. falciparum, 120 h, parasite screen 2 μg/mL, % growth, replicate 1
[15] = P. falciparum, 120 h, parasite screen 2 μg/mL, % growth, replicate 2
[16] = P. falciparum 3D7, 72 h, parasite screen at 2 μg/mL, % growth, replicate 1
[17] = P. falciparum 3D7, 72 h, parasite screen at 2 μg/mL, % growth, replicate 2
[18] = T. gondii, parasite screen at 2 μg/mL, % growth, replicate 1
[19] = T. gondii, parasite screen at 2 μg/mL, % growth, replicate 2
[20] = P. falciparum 3D7, 120 h, parasite screen at 2 μg/mL, % growth, replicate 1
[21] = P. falciparum 3D7, 120 h, parasite screen at 2 μg/mL, % growth, replicate 2

C/C=C/C[C@@H](C)[C@@H](O)[C@H]1C(=O)N[C@@H]([C@@H](C)O)C(=O)N(C)CC(=O)N(C)[C@@H](CC(C)C)C(=O)N[C@@H](C(C)C)C(=O)N(C)[C@@H](CC(C)C)C(=O)N[C@@H](C)C(=O)N[C@H](C)C(=O)N(C)[C@@H](CC(C)C)C(=O)N(C)[C@@H](CC(C)C)C(=O)N(C)[C@@H](C(C)C)C(=O)N1C [Cyclosporin C]
Pf_72h_%Growth_Rep1 [1, 4]: 11.25%
Pf_72h_%Growth_Rep2 [1, 5]: 0.59%
Tg_72h_%Growth_Rep1 [2, 6]: 44.04%
Tg_72h_%Growth_Rep2 [2, 7]: 47.65%
Pf_120h_%Growth_Rep1 [3, 8]: 31.80%
Pf_120h_%Growth_Rep2 [3, 9]: 7.29%

C=C1CCO[C@]2([C@@H](O)[C@@](C)(O)COC(=O)c3ccccc3)NC(=O)[C@@]1(O)NC2=O [Bicyclomycin benzoate]
Pf_72h_%Growth_Rep1 ([1]; library screen at 2 μg/mL, 72 h, % growth, replicate 1): 94.43%
Pf_72h_%Growth_Rep2 ([1]; library screen at 2 μg/mL, 72 h, % growth, replicate 2): 88.43%
Tg_72h_%Growth_Rep1 ([2]; library screen at 2 μg/mL, % growth, replicate 1): 81.93%
Tg_72h_%Growth_Rep2 ([2]; library screen at 2 μg/mL, % growth, replicate 2): 95.48%
Pf_120h_%Growth_Rep1 ([3]; library screen at 2 μg/mL, 120 h, % growth, replicate 1): 148.77%
Pf_120h_%Growth_Rep2 ([3]; library screen at 2 μg/mL, 120 h, % growth, replicate 2): 99.84%

CC[C@H](C)C(=O)O[C@H]1C[C@@H](C)C=C2C=C[C@H](C)[C@H](CC[C@@H]3C[C@@H](O)CC(=O)O3)[C@H]21 [BIA-L1264]
Pf_72h_%Growth_Rep1 ([1]; P. falciparum 3D7, 72 h, library screen at 2 μg/mL, % growth, replicate 1): 70.29%
Pf_72h_%Growth_Rep2 ([1]; P. falciparum 3D7, 72 h, library screen at 2 μg/mL, % growth, replicate 2): 102.36%
Tg_72h_%Growth_Rep1 ([2]; T. gondii RH, library screen at 2 μg/mL, % growth, replicate 1): 3.18%
Tg_72h_%Growth_Rep2 ([2]; T. gondii RH, library screen at 2 μg/mL, % growth, replicate 2): 2.54%
Pf_120h_%Growth_Rep2 [3]: 93.18%
Pf_120h_%Growth_Rep1 ([3]; P. falciparum 3D7, 120 h, library screen at 2 μg/mL, % growth, replicate 1): 89.66%

CC[C@H]1CCC[C@H](O)[C@@H](C)C(=O)C2=C[C@@H]3[C@@H](C=C(C)[C@@H]4C[C@@H](O)C[C@@H]34)[C@@H]2CC(=O)O1 [Spinosyn D aglycone]
IC50 ([1]; 3D7, 72 h treatment, mean ± S.D., n ≥ 3, read-out: IC50 (μM), P. falciparum): > 1 µM
Pf_72h_%Growth_Rep1 [1, 10]: 82.67%
Pf_72h_%Growth_Rep2 [1, 11]: 106.85%
Screen (P. falciparum) ([1]; library screen at 2 μg/mL, 3D7, 72 h, DD from the 120 h timepoint): I
Tg_72h_%Growth_Rep1 [2, 12]: 115.34%
Tg_72h_%Growth_Rep2 [2, 13]: 86.84%
Pf_120h_%Growth_Rep1 [3, 14]: 82.24%
Pf_120h_%Growth_Rep2 [3, 15]: 90.76%

COc1cc(O)c2c(c1)C(=O)c1cc3c(c(O)c1C2=O)C(OC1OC(C)C(OC)C(O)C1OC)C(OC)C(C)(O)C3=O (centres unmarked) [Steffimycin B]
Pf_72h_%Growth_Rep1 [1, 10]: 70.82%
Pf_72h_%Growth_Rep2 [1, 11]: 45.75%
Tg_72h_%Growth_Rep1 [2, 12]: 26.05%
Tg_72h_%Growth_Rep2 [2, 13]: 22.83%
Pf_120h_%Growth_Rep1 [3, 14]: 57.65%
Pf_120h_%Growth_Rep2 [3, 15]: 80.04%

OC[C@H]1O[C@@H](n2cnc3c2N=CNC[C@H]3O)C[C@@H]1O [BIA-P1273]
Pf_72h_%Growth_Rep1 [1, 16]: 69.65%
Pf_72h_%Growth_Rep2 [1, 17]: 72.25%
Tg_72h_%Growth_Rep1 [2, 18]: 120.62%
Tg_72h_%Growth_Rep2 [2, 19]: 91.66%
Pf_120h_%Growth_Rep1 [3, 20]: 57.41%
Pf_120h_%Growth_Rep2 [3, 21]: 140.11%

CC[C@H]1NC(=O)[C@@H](NC(=O)c2ncccc2O)[C@@H](C)OC(=O)[C@H](c2ccccc2)NC(=O)[C@@H]2CC(=O)CCN2C(=O)[C@H](Cc2ccccc2)N(C)C(=O)[C@@H]2CCCN2C1=O [Virginiamycin S1]
Pf_72h_%Growth_Rep1 [1, 4]: 88.54%
Pf_72h_%Growth_Rep2 [1, 5]: 126.74%
Tg_72h_%Growth_Rep1 [2, 6]: 137.70%
Tg_72h_%Growth_Rep2 [2, 7]: 85.91%
Pf_120h_%Growth_Rep1 [3, 8]: 110.70%
Pf_120h_%Growth_Rep2 [3, 9]: 75.61%

Oc1cc(O)cc(O)c1 [BIA-P1379]
Pf_72h_%Growth_Rep1 [1, 16]: 72.55%
Pf_72h_%Growth_Rep2 [1, 17]: 29.88%
Tg_72h_%Growth_Rep1 [2, 18]: 123.57%
Tg_72h_%Growth_Rep2 [2, 19]: 91.75%
Pf_120h_%Growth_Rep1 [3, 20]: 15.44%
Pf_120h_%Growth_Rep2 [3, 21]: 11.00%

COc1cc(C)c(C(=O)Oc2cc(C)c(C(=O)O)c(O)c2C)c(OC)c1C [Diffractaic acid]
activity at 2 µg/mL ([1]; library screen at 2 μg/mL, 72 h, % growth, replicate 1, read-out: Pf_72h_%Growth_Rep1): 80.1%
activity at 2 µg/mL ([1]; library screen at 2 μg/mL, 72 h, % growth, replicate 2, read-out: Pf_72h_%Growth_Rep2): 79.9%
percent parasite growth at 2 µg/mL ([2]; library screen at 2 μg/mL, % growth, replicate 1, read-out: Tg_72h_%Growth_Rep1): 133%
percent parasite growth at 2 µg/mL ([2]; library screen at 2 μg/mL, % growth, replicate 2, read-out: Tg_72h_%Growth_Rep2): 97.5%
activity at 2 µg/mL ([3]; library screen at 2 μg/mL, 120 h, % growth, replicate 1, read-out: Pf_120h_%Growth_Rep1): 91.2%
activity at 2 µg/mL ([3]; library screen at 2 μg/mL, 120 h, % growth, replicate 2, read-out: Pf_120h_%Growth_Rep2): 81.2%

From PMC12396409, “Screening and hit evaluation of a microbial metabolite library against the pathogenic Plasmodium falciparum and Toxoplasma gondii parasites” (International Journal for Parasitology: Drugs and Drug …, 2025)
